Reference: patent publication US20220412955A1, “A MODEL OF CLINICAL SYNERGY IN CANCER” (priority 2019, published 2022)

Test system: primary MM cells
Assay type: cell-based
Details: patient 210's primary MM cells, 0.05 μM, interval of 120 hours
Procedure: Each well was imaged every 30 minutes for a total duration of up to 6 days.

In the case of `CC(C)C[C@H](NC(=O)[C@H](CCc1ccccc1)NC(=O)CN1CCOCC1)C(=O)N[C@@H](Cc1ccccc1)C(=O)N[C@@H](CC(C)C)C(=O)[C@@]1(C)CO1` [carfilzomib], the “delay between start of treatment and initiation of cell death” value is reported as ~30 h.
